According to patent US8835418B2, “Hexafluoroisopropyl carbamate derivatives, their preparation and their therapeutic application” (SANOFI, priority 2010, dated 2014):
Structures can show the parent of a compound that is named as a salt.

Key:
[1] = biological target: T1, enzyme MGL (monoacyl glycerol lipase) (Mus musculus, UniProt O35678); assay: radioenzymatic assay of MGL activity (hydrolysis of [3H]2-oleoylglycerol by mouse brain homogenate); assay type: biochemical; settings: mouse brain homogenate (37.5 μg protein), 20 min preincubation, 50 μM 2-OG with [3H]2-OG, ambient temperature, read-out: IC50 (concentration which inhibits the control enzymatic activity of the MGL by 50%)
T1 construct: The source of enzyme MGL is a homogenate of mouse brain from which the cerebellum and the medulla oblongata have been removed; from tissue; host or cells: mouse brain homogenate (cerebellum and medulla oblongata removed)
T1 sequence (O35678 1-303): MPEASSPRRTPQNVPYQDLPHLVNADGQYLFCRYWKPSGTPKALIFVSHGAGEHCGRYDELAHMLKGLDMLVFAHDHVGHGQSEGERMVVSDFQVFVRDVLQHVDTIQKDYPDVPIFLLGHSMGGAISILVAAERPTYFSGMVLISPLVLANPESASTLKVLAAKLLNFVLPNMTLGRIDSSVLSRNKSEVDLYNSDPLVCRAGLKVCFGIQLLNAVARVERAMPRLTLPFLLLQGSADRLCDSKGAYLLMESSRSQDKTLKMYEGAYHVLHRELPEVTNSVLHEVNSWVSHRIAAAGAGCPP
Method: The inhibitory activity with respect to MGL is given by the concentration which inhibits 50% of the activity of MGL.
The inhibitory activity was measured in a radioenzymatic assay based on measuring the product of hydrolysis of 2-oleoylglycerol ([^3H]2-OG) by the enzyme MGL. The products of hydrolysis of [^3H]2-OG, labelled on the glycerol, are oleic acid and [^3H]glycerol. The source of enzyme MGL is a homogenate of mouse brain from which the cerebellum and the medulla oblongata have been removed. The mouse brains are removed and stored at −80° C. until they are used or homogenized immediately for 2 times 5 seconds using a Precellys device (Bertin) at 5000 rpm in a 10 mM Tris-HCl pH 8, 150 mM NaCl, 1 mM EDTA buffer at 4° C.
The dilution series of the compounds is prepared from stock solutions at 20 mM in 100% DMSO. The first dilution of this series is prepared in 100% DMSO and then the second is prepared in the enzymatic reaction buffer (50 mM phosphate, 0.1% BSA), resulting in the preparation of a 10-times concentrated concentration range. The test compounds are preincubated at the chosen concentration for 20 minutes with the mouse brain homogenate preparation.
Assaying of the MGL activity is carried out at ambient temperature in a 96-well microplate in a final reaction volume of 50 μl. […] After 20 minutes of preincubation with the test compounds, the proteins are incubated for 20 minutes in the presence of 50 μM of 2-OG comprising an amount of [^3H]2-OG of 0.027 μCi per well (specific activity of 20 Ci/mmol). The reaction is stopped by the addition of 50 μl per well of a charcoal suspension (6% of Sigma activated charcoal, reference C4386, in suspension in a 0.5M HCl, 1.5M NaCl solution). After stirring for 10 minutes, the [^3H]glycerol, not retained by the charcoal, is collected by filtration in a microplate comprising 100 μl of scintillant (OptiPhase Supermix, Perkin-Elmer) per well.

| SMILES | melting point | IC50 [1] |
| --- | --- | --- |
| O=C(OC(C(F)(F)F)C(F)(F)F)N1CCC(Nc2ccc(C(F)(F)F)cn2)CC1 (as salt: hydrochloride) [Compound 65, 2,2,2-Trifluoro-1-(trifluoromethyl)ethyl 4-(5-(trifluoromethyl)pyridin-2-ylamino)piperidine-1-carboxylate hydrochloride (1:1)] | 225 to 235 °C (dec.) | – |
| N#Cc1ccc(C2CCN(C(=O)OC(C(F)(F)F)C(F)(F)F)CC2)cc1 [Compound 5, 2,2,2-Trifluoro-1-(trifluoromethyl)ethyl 4-(4-cyanophenyl)piperidine-1-carboxylate] | 54 to 56 °C | – |
| O=C(OC(C(F)(F)F)C(F)(F)F)N1CCC(c2noc3cc(F)ccc23)CC1 [Compound 10, 2,2,2-Trifluoro-1-(trifluoromethyl)ethyl 4-(6-fluorobenz[d]isoxazol-3-yl)piperidine-1-carboxylate] | 91 to 93 °C | – |
| O=C(OC(C(F)(F)F)C(F)(F)F)N1CCC(n2nnc3cc(C(F)(F)F)ccc32)CC1 [Compound 13, 2,2,2-Trifluoro-1-(trifluoromethyl)ethyl 4-(5-(trifluoromethyl)benzotriazol-1-yl)piperidine-1-carboxylate] | – | 6 nM |
| O=C(OC(C(F)(F)F)C(F)(F)F)N1CC[C@@H](Oc2cccc(-c3ccc(F)cc3)c2)C1 [Compound 23, 2,2,2-Trifluoro-1-(trifluoromethyl)ethyl (R)-3-(4′-fluorobiphenyl-3-yloxy)pyrrolidine-1-carboxylate] | 72 to 73 °C | – |
| N#Cc1cccc(-c2cccc(OC3CCN(C(=O)OC(C(F)(F)F)C(F)(F)F)CC3)c2)c1 [Compound 33, 2,2,2-Trifluoro-1-(trifluoromethyl)ethyl 4-(3′-cyanobiphenyl-3-yloxy)piperidine-1-carboxylate] | 80 to 82 °C | 0.6 nM |
| N#Cc1cccc(-c2nccc(NC3CCN(C(=O)OC(C(F)(F)F)C(F)(F)F)CC3)n2)c1 [Compound 70, 2,2,2-Trifluoro-1-(trifluoromethyl)ethyl 4-[2-(3-cyanophenyl)pyrimidin-4-ylamino]pipendine-1-carboxylate] | 151 to 153 °C | 5 nM |
| CC(C)(Oc1ccc(Cl)cc1)C(=O)NCC1CCN(C(=O)OC(C(F)(F)F)C(F)(F)F)CC1 [Compound 87, 2,2,2-Trifluoro-1-(trifluoromethyl)ethyl 4-{[2-(4-chlorophenoxy)-2-methylpropionylamino]-methyl}piperidine-1-carboxylate] | 77 to 78 °C | – |
| O=C(NCCC1CN(C(=O)OC(C(F)(F)F)C(F)(F)F)C1)Nc1cccc(Cl)c1 [Compound 188, 2,2,2-Trifluoro-1-(trifluoromethyl)ethyl 3-{2-[3-(3-chlorophenyl)ureido]ethyl}azetidine-1-carboxylate] | 116 to 117 °C | 1.1 nM |
| O=C(OC(C(F)(F)F)C(F)(F)F)N1CC(C2(NS(=O)(=O)c3ccc(Cl)cc3)CC2)C1 [Compound 220, 2,2,2-Trifluoro-1-(trifluoromethyl)ethyl 3-[1-(4-chlorobenzenesulphonylamino)cyclopropyl]-azetidine-1-carboxylate] | 108 to 109 °C | – |
| NC(=O)c1cnn(CC2CCN(C(=O)OC(C(F)(F)F)C(F)(F)F)CC2)c1 [Compound 231, 2,2,2-Trifluoro-1-(trifluoromethyl)ethyl 4-(4-carbamoylpyrazol-1-ylmethyl)piperidine-1-carboxylate] | 98 to 118 °C | – |

Now from value to compound:

| melting point | IC50 [1] | SMILES |
| --- | --- | --- |
| 231 to 233 °C | – | O=C(OC(C(F)(F)F)C(F)(F)F)N1CCC(n2c(=O)[nH]c3cc(Cl)ccc32)CC1 [Compound 12, 2,2,2-Trifluoro-1-(trifluoromethyl)ethyl 4-(5-chloro-2-oxo-2,3-dihydrobenzimidazol-1-yl)piperidine-1-carboxylate] |
| 72 to 73 °C | – | O=C(OC(C(F)(F)F)C(F)(F)F)N1CC[C@H](Oc2cccc(-c3ccc(F)cc3)c2)C1 [Compound 22, 2,2,2-Trifluoro-1-(trifluoromethyl)ethyl (S)-3-(4′-fluorobiphenyl-3-yloxy)pyrrolidine-1-carboxylate] |
| 135 to 136 °C | – | O=C(OC(C(F)(F)F)C(F)(F)F)N1CCC(CNS(=O)(=O)c2cccc3ccccc23)C1 (stereo not drawn) [Compound 113, 2,2,2-Trifluoro-1-(trifluoromethyl)ethyl 3-[(naphthalene-1-sulphonylamino)methyl]-pyrrolidine-1-carboxylate] |
| 204 to 206 °C | – | O=C(Nc1cccc(Cl)c1)NC1CCN(C(=O)OC(C(F)(F)F)C(F)(F)F)CC1 [Compound 166, 2,2,2-Trifluoro-1-(trifluoromethyl)ethyl 4-[3-(3-chlorophenyl)ureido]piperidine-1-carboxylate] |
| 101 to 102 °C | – | CN(C(=O)NCCC1CN(C(=O)OC(C(F)(F)F)C(F)(F)F)C1)c1ccccc1 [Compound 191, 2,2,2-Trifluoro-1-(trifluoromethyl)ethyl 3-[2-(3-methyl-3-phenylureido)ethyl]azetidine-1-carboxylate] |
| 146 to 148 °C | 7 nM | O=C(OC(C(F)(F)F)C(F)(F)F)N1CCC(CNS(=O)(=O)c2cccc3nsnc23)CC1 [Compound 211, 2,2,2-Trifluoro-1-(trifluoromethyl)ethyl 4-[(benzo[1,2,5]thiadiazole-4-sulphonylamino)methyl]piperidine-1-carboxylate] |
